Like-named read-outs stand apart in the source and are kept apart here.
Key:
[1] = target: Cy5-labelled Mcl1 (amino acids 171-321) C286S protein (UniProtKB Q07820) (Homo sapiens (Human), UniProt Q07820, C286S); assay: Inhibition of Mcl-1 by the fluorescence quenching assay (Example A, Method B); format: binding
How it was run: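 Eleven-point compound series incubated 2 h at room temperature with 1 nM Cy5-tagged protein and quencher-labelled PUMA peptide at 10, 20 or 400 nM in HEPES/NaCl/Tween 20, pH 7.4, 5% DMSO. IC50 for 50% fluorescence increase by 4-parameter fit, then Ki derived (complete cKi or estimated eKi).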

[2] = system: H929 multiple myeloma tumor line; assay: In vitro cytotoxicity, MTT assay (Example B, Method A); format: cell-based; settings: H929 cells, 48 hours exposure, read-out: C50
Experimental: The cytotoxicity studies were carried out on the H929 multiple myeloma tumor line.
The cells are distributed onto microplates and exposed to the test compounds for 48 hours. The cell viability is then quantified by a colorimetric assay, the Microculture Tetrazolium Assay (Carmichael et al, Cancer Res. 1987, 47, 939-942).
The results are expressed in C50 which means concentration corresponding to […] of effect/inhibition.

Sequence of Cy5-labelled Mcl1 (amino acids 171-321) C286S protein (Q07820 171-321 C286S): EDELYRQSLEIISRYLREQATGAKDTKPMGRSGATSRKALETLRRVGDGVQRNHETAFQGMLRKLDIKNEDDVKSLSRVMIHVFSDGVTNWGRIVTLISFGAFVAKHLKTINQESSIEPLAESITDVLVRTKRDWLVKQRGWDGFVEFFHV

Structure (SMILES)	Ki [1]	IC50 ([2]; Homo sapiens, NCI-H929, 48 h)	IC50 [2]
C[C@@H](COc1ccnc2c1[C@H](C(F)(F)F)CCC2)C[C@H]1Cc2ccccc2[C@]12CC[C@@](Nc1cccc(Cl)c1)(C(=O)O)CC2 [Example 699, (1r,2′S,4S)-4-(3-chloroanilino)-2′-[(2R)-2-methyl-3-{[(5R)-5-(trifluoromethyl)-5,6,7,8-tetrahydroquinolin-4-yl]oxy}propyl]-2′,3′-dihydrospiro[cyclohexane-1,1′-indene]-4-carboxylic acid]	1.15 nM	115 nM	–
CO[C@@H]1CCCc2nccc(OC[C@H](C)C[C@H]3Cc4ccccc4[C@]34CC[C@@](Nc3cccc(Cl)c3)(C(=O)O)CC4)c21 [Example 672, (1r,2′S,4S)-4-(3-chloroanilino)-2′-[(2R)-3-{[(5R)-5-methoxy-5,6,7,8-tetrahydroquinolin-4-yl]oxy}-2-methylpropyl]-2′,3′-dihydrospiro[cyclohexane-1,1′-indene]-4-carboxylic acid]	2.44 nM	391 nM	–
O=C(O)[C@]1(Nc2cccc(Cl)c2)CC[C@@]2(CC1)c1ccccc1CC2CC(COc1ccnc2ccsc12)Cc1ccccc1 (single isomer, unassigned) [Example 562, (1r,4r)-2′-{2-benzyl-3-[(thieno[3,2-b]pyridin-7-yl)oxy]propyl}-4-(3-chloroanilino)-2′,3′-dihydrospiro[cyclohexane-1,1′-indene]-4-carboxylic acid]	80.9 nM	–	17800 nM
Cc1cccc2c1C=C(C[C@@H](C)COc1ccnc3c1[C@H](C)CCC3)[C@]21CC[C@](Nc2cccc(Cl)c2)(C(=O)O)CC1 [Example 753, (1r,4R)-4-(3-chloroanilino)-4′-methyl-2′-[(2R)-2-methyl-3-{[(5R)-5-methyl-5,6,7,8-tetrahydroquinolin-4-yl]oxy}propyl]spiro[cyclohexane-1,1′-indene]-4-carboxylic acid]	3.22 nM	111 nM	–
C[C@@H]1Cc2nccc(OC[C@H](C)C[C@H]3Cc4ccccc4[C@]34CC[C@@](Nc3cccc(Cl)c3)(C(=O)O)CC4)c2[C@@H](C)C1 [Example 666, (1r,2′S,4S)-4-(3-chloroanilino)-2′-[(2R)-3-{[(5S,7S)-5,7-dimethyl-5,6,7,8-tetrahydroquinolin-4-yl]oxy}-2-methylpropyl]-2′,3′-dihydrospiro[cyclohexane-1,1′-indene]-4-carboxylic acid]	28.7 nM	1070 nM	–
C[C@@H](COc1ccnc2c1CCC/C2=C\F)C[C@H]1Cc2ccccc2[C@]12CC[C@@](Nc1cccc(Cl)c1)(C(=O)O)CC2 [Example 684, (1r,2′S,4S)-4-(3-chloroanilino)-2′-[(2R)-3-{[(8E)-8-(fluoromethylidene)-5,6,7,8-tetrahydroquinolin-4-yl]oxy}-2-methylpropyl]-2′,3′-dihydrospiro[cyclohexane-1,1′-indene]-4-carboxylic acid]	45.5 nM	5850 nM	–
Cc1cc(Cl)cc(N[C@]2(C(=O)O)CC[C@]3(CC2)c2ccccc2C[C@@H]3C[C@@H](C)COc2ccnc3c2[C@H](C)CCC3)c1 [Example 710, (1r,2′S,4S)-4-(3-chloro-5-methylanilino)-2′-[(2R)-2-methyl-3-{[(5R)-5-methyl-5,6,7,8-tetrahydroquinolin-4-yl]oxy}propyl]-2′,3′-dihydrospiro[cyclohexane-1,1′-indene]-4-carboxylic acid]	44.1 nM	3280 nM	–
CCCC#C[C@H](COc1ccnc2ccsc12)CC1=Cc2ccccc2[C@]12CC[C@@](Nc1cccc(Cl)c1)(C(=O)O)CC2 [Example 564, (1r,4R)-4-(3-chloroanilino)-2′-[(2R)-2-{[(thieno[3,2-b]pyridin-7-yl)oxy]methyl}hept-3-yn-1-yl]spiro[cyclohexane-1,1′-indene]-4-carboxylic acid]	29.9 nM	16100 nM	–
C[C@@H]1CCCc2nccc(OCC(CC3=Cc4ccccc4[C@]34CC[C@@](Nc3cccc(Cl)c3)(C(=O)O)CC4)C(F)F)c21 (single isomer, unassigned) [Example 517]	4.98 nM	–	550 nM
CC(O)c1ccc2c(c1)[C@]1(CC[C@@](Nc3cccc(Cl)c3)(C(=O)O)CC1)[C@@H](C[C@@H](C)COc1ccnc3c1[C@H](C)CC[C@H]3O)C2 (single isomer, unassigned) [Example 861]	0.0909 nM	56.3 nM	–
O=C(O)[C@]1(Nc2cccc(Cl)c2)CC[C@@]2(CC1)c1ccccc1CC2CC(COc1ccnc2ccsc12)Cc1ccccc1 (single isomer, unassigned) [Example 563, (1r,4r)-2′-{2-benzyl-3-[(thieno[3,2-b]pyridin-7-yl)oxy]propyl}-4-(3-chloroanilino)-2′,3′-dihydrospiro[cyclohexane-1,1′-indene]-4-carboxylic acid]	43.5 nM	–	3950 nM
C[C@@H](CNc1ccncc1)C[C@H]1Cc2ccccc2[C@]12CC[C@@](Nc1cccc(Cl)c1)(C(=O)O)CC2 [Example 575, (1r,2′S,4S)-4-(3-chloroanilino)-2′-{(2R)-2-methyl-3-[(pyridin-4-yl)amino]propyl}-2′,3′-dihydrospiro[cyclohexane-1,1′-indene]-4-carboxylic acid]	350 nM	16200 nM	–
CC(CC1Cc2ccccc2[C@]12CC[C@@](Nc1cccc(Cl)c1)(C(=O)O)CC2)C1CCC(=O)CC1 (single isomer, unassigned) [Example 572, (1r,4r)-4-(3-chloroanilino)-2′-[2-(4-oxocyclohexyl)propyl]-2′,3′-dihydrospiro[cyclohexane-1,1′-indene]-4-carboxylic acid]	84.2 nM	–	30000 nM
Cc1c(OC[C@H](C)C[C@H]2Cc3ccccc3[C@]23CC[C@@](Nc2cccc(Cl)c2)(C(=O)O)CC3)ccnc1CO [Example 586, (1r,2′S,4S)-4-(3-chloroanilino)-2′-[(2R)-3-{[2-(hydroxymethyl)-3-methylpyridin-4-yl]oxy}-2-methylpropyl]-2′,3′-dihydrospiro[cyclohexane-1,1′-indene]-4-carboxylic acid]	2.62 nM	1610 nM	–
C[C@@H](COc1ccnc2c1[C@H](C)CC[C@H]2O)C[C@H]1Cc2ccccc2[C@]12CC[C@@](Nc1cccc(Cl)c1)(C(=O)O)CC2 [Example 676, (1r,2′S,4S)-4-(3-chloroanilino)-2′-[(2R)-3-{[(5R,8R)-8-hydroxy-5-methyl-5,6,7,8-tetrahydroquinolin-4-yl]oxy}-2-methylpropyl]-2′,3′-dihydrospiro[cyclohexane-1,1′-indene]-4-carboxylic acid]	0.418 nM	–	65.6 nM
C[C@@H](COc1ccnc2c1CCC[C@H]2F)C[C@H]1Cc2ccccc2[C@]12CC[C@@](Nc1cccc(Cl)c1)(C(=O)O)CC2 [Example 681, (1r,2′S,4S)-4-(3-chloroanilino)-2′-[(2R)-3-{[(8R)-8-fluoro-5,6,7,8-tetrahydroquinolin-4-yl]oxy}-2-methylpropyl]-2′,3′-dihydrospiro[cyclohexane-1,1′-indene]-4-carboxylic acid]	3.26 nM	1160 nM	–
COCC(COc1ccnc2c1CCC2)CC1Cc2ccccc2[C@]12CC[C@@](Nc1cccc(Cl)c1)(C(=O)O)CC2 (stereo partly shown) [Example 494, (1r,4r)-4-(3-chloroanilino)-2′-(2-{[(6,7-dihydro-5H-cyclopenta[b]pyridin-4-yl)oxy]methyl}-3-methoxypropyl)-2′,3′-dihydrospiro[cyclohexane-1,1′-indene]-4-carboxylic acid]	3.62 nM	808 nM	–
C[C@@H](COc1ccnc2c1CCCC2C(F)F)C[C@H]1Cc2ccccc2[C@]12CC[C@@](Nc1cccc(Cl)c1)(C(=O)O)CC2 (single isomer, unassigned) [Example 682]	46.6 nM	5180 nM	–
C[C@@H](COc1ccnc2c1[C@H](C)CC[C@H]2O)C[C@H]1Cc2ccccc2[C@]12CC[C@@](Nc1cccc(Cl)c1)(C(=O)O)CC2 [Example 673, (1r,2′S,4S)-4-(3-chloroanilino)-2′-[(2R)-3-{[(5R,8S)-8-hydroxy-5-methyl-5,6,7,8-tetrahydroquinolin-4-yl]oxy}-2-methylpropyl]-2′,3′-dihydrospiro[cyclohexane-1,1′-indene]-4-carboxylic acid]	0.647 nM	–	208 nM
CC(CC1Cc2ccccc2[C@]12CC[C@@](Nc1cccc(Cl)c1)(C(=O)O)CC2)C1CCC(=O)CC1 (single isomer, unassigned) [Example 573, (1r,4r)-4-(3-chloroanilino)-2′-[2-(4-oxocyclohexyl)propyl]-2′,3′-dihydrospiro[cyclohexane-1,1′-indene]-4-carboxylic acid]	806 nM	–	30000 nM
C[C@@H](COc1ccnc2c1[C@H](C)CCC2)CC1Cc2c(F)c(Cl)ccc2[C@]12CC[C@@](Nc1cccc(Cl)c1)(C(=O)O)CC2 (single isomer, unassigned) [Example 748]	1.5 nM	138 nM	–
Cc1cccc2c1CC(C[C@@H](C)COc1ccnc3c1[C@H](C)CCC3)[C@]21CC[C@](Nc2cccc(Cl)c2)(C(=O)O)CC1 (single isomer, unassigned) [Example 754]	1.23 nM	96.6 nM	–
COCCOc1ccc2c(c1)[C@]1(CC[C@@](Nc3cccc(Cl)c3)(C(=O)O)CC1)[C@@H](C[C@@H](C)COc1ccnc3ccsc13)C2 [Example 730, (1r,2′S,4S)-4-(3-chloroanilino)-6′-(2-methoxyethoxy)-2′-{(2R)-2-methyl-3-[(thieno[3,2-b]pyridin-7-yl)oxy]propyl}-2′,3′-dihydrospiro[cyclohexane-1,1′-indene]-4-carboxylic acid]	2.1 nM	210 nM	–

Reference: patent publication US20240150293A1, “SPIROCYCLOHEXANE DERIVATIVES, PHARMACEUTICAL COMPOSITIONS CONTAINING THEM AND THEIR USES AS ANTI-APOPTOTIC INHIBITORS” (LES LABORATOIRES SERVIER, priority 2021, published 2024)
